CC[C@@H](C(N)=O)N1CCCC1=O
solubility (mole fraction)
Conditions	in 1,4-dioxane	in acetone	in acetonitrile	in cyclohexane	in ethanol	in ethyl acetate	in isopropanol	in methanol	in n-propanol	in toluene
283.15 K	–	0.00698	0.00909	1.37e-05	0.0384	0.00424	0.0115	0.0814	0.0167	0.00122
288.15 K	0.00718	0.00887	0.0113	1.92e-05	0.0459	0.00539	0.0147	0.0974	0.0207	0.00167
293.15 K	0.00902	0.0111	0.0137	2.61e-05	0.0546	0.00676	0.0185	0.115	0.0252	0.0022
298.15 K	0.0112	0.014	0.0168	3.64e-05	0.0643	0.00847	0.0229	0.136	0.0303	0.00299
303.15 K	0.014	0.0175	0.0203	4.91e-05	0.0758	0.0104	0.0286	0.158	0.0362	0.00393
308.15 K	0.0173	0.0217	0.0245	6.61e-05	0.0885	0.0129	0.0354	0.182	0.0434	0.00524
313.15 K	0.0214	0.0268	0.0292	8.95e-05	0.103	0.0158	0.0435	0.209	0.052	0.00699
318.15 K	0.0263	0.033	0.035	0.00012	0.12	0.0194	0.0537	0.239	0.0614	0.00947
323.15 K	0.0322	0.0405	0.0416	0.00016	0.138	0.0236	0.0663	0.27	0.0729	0.0129
